# US12174198B2, “Methods of characterizing condensate-associated characteristics of compounds and uses thereof” (Dewpoint Therapeutics, Inc., priority 2019, dated 2024)
# Structures can show the parent of a compound that is named as a salt.
# Biological target: T1, PGL-3 condensates (Caenorhabditis elegans, UniProt G5EBV6)
# T1 sequence (G5EBV6 1-693): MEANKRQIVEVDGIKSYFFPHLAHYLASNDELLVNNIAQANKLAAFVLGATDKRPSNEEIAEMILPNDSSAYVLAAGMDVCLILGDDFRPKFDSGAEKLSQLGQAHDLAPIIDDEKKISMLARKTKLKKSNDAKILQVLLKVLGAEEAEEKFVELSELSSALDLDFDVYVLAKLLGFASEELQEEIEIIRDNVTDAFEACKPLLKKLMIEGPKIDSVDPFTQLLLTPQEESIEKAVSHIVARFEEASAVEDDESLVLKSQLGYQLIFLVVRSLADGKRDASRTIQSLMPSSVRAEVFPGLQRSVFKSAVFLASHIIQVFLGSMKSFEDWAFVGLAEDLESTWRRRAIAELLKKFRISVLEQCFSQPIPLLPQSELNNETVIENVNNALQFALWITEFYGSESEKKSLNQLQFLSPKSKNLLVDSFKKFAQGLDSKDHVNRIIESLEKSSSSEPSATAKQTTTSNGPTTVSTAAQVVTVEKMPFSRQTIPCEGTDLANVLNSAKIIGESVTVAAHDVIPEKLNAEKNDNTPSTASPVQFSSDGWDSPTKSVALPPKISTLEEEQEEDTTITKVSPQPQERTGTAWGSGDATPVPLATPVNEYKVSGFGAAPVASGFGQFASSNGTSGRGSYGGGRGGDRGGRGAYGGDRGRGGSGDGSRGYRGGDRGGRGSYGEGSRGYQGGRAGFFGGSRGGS
# Experiment: Fluorescence imaging of dye partitioning in PGL-3 condensates (I-in, I-out)
# Assay type: physicochemical
# Settings: for Ratio of intensity inside:outside PGL-3 Condensates Day 1 / Ratio of intensity inside:outside PGL-3 Condensates Day 2 / Ratio of intensity inside:outside PGL-3 Condensates Average: I-in:I-out; for Ratio of intensity inside:outside PGL-3 Condensates Day 1 / Ratio of intensity inside:outside PGL-3 Condensates Day 2 / Ratio of intensity inside:outside PGL-3 Condensates Average / Intensity Inside with Dye Average / Intensity Inside with Dye 1 / Intensity Inside with Dye 2 / Intensity Inside with Dye 3 / Intensity Outside with Dye Average / Intensity Outside with Dye 1 / Intensity Outside with Dye 2 / Intensity Outside with Dye 3: 10 μM dye; for Ratio of intensity inside:outside PGL-3 Condensates Average: average of two days; for Intensity Inside with Dye Average / Intensity Inside with Dye 1 / Intensity Inside with Dye 2 / Intensity Inside with Dye 3 / Intensity Inside Dye-No Dye: inside PGL-3 condensate; for Intensity Inside with Dye Average / Intensity Inside with Dye 1 / Intensity Inside with Dye 2 / Intensity Inside with Dye 3 / Intensity Outside with Dye Average / Intensity Outside with Dye 1 / Intensity Outside with Dye 2 / Intensity Outside with Dye 3: 5 μM protein; for Intensity Inside with Dye Average / Intensity Outside with Dye Average: average of three images; for Intensity Inside with Dye Average / Intensity Inside with Dye 1 / Intensity Inside with Dye 2 / Intensity Inside with Dye 3 / Intensity Inside Dye-No Dye / Intensity Outside with Dye Average / Intensity Outside with Dye 1 / Intensity Outside with Dye 2 / Intensity Outside with Dye 3 / Intensity Outside (Dye-No Dye): one day of experiments; for Intensity Inside with Dye 1 / Intensity Outside with Dye 1: image 1; for Intensity Inside with Dye 2 / Intensity Outside with Dye 2: image 2; for Intensity Inside with Dye 3 / Intensity Outside with Dye 3: image 3; for Intensity Inside Dye-No Dye / Intensity Outside (Dye-No Dye): background corrected; for Intensity Outside with Dye Average / Intensity Outside with Dye 1 / Intensity Outside with Dye 2 / Intensity Outside with Dye 3 / Intensity Outside (Dye-No Dye): outside PGL-3 condensate
# In short: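 Partitioning read by spinning-disk confocal imaging (60× oil, dye-specific exposure 1-1000 ms) of condensates formed from 5 μM protein (FUS-SNAP or untagged PGL-3) plus 10 μM dye, 75 mM KCl, 1% DMSO, pH 7.25. Background-subtracted intensities inside and beside one condensate per image, three images averaged.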
Compound,Ratio of intensity inside:outside PGL-3 Condensates Day 1,Ratio of intensity inside:outside PGL-3 Condensates Day 2,Ratio of intensity inside:outside PGL-3 Condensates Average,Intensity Inside with Dye Average,Intensity Inside with Dye 1,Intensity Inside with Dye 2,Intensity Inside with Dye 3,Intensity Inside Dye-No Dye,Intensity Outside with Dye Average,Intensity Outside with Dye 1,Intensity Outside with Dye 2,Intensity Outside with Dye 3,Intensity Outside (Dye-No Dye)
"N#CC1=c2cc3c4c(c2Oc2c1cc1c5c2CCCN5CCC1)CCC[N+]=4CCC3 [Dye 18, Rhodamine 800]",3.4,2.4,2.9,730.8,714.9,700.1,777.4,604.6,309.4,301.3,294.6,332.2,178.7
"CCN(CC)c1ccc2c(-c3ccccc3C(=O)O)c3ccc(=[N+](CC)CC)cc-3oc2c1 [Dye 16, Rhodamine B]",1.4,1.3,1.4,5776.5,5570.5,6179.8,5579.3,5675.0,4088.7,3907.8,4226.6,4131.5,3987.2
"O=C([O-])c1ccccc1C1=c2cc3c4c(c2Oc2c1cc1c5c2CCCN5CCC1)CCC[N+]=4CCC3 [Dye 17, Rhodamine 101 inner salt]",1.8,1.9,1.9,13067.5,12579.6,14061.0,12561.8,12966.0,7117.9,7184.0,7157.1,7012.6,7016.4
"O=C1OC2(c3ccc(O)cc3Oc3cc(O)ccc32)c2ccccc21 [Dye 6, Fluorescein]",1.0,1.0,1.0,4402.0,4585.4,4501.5,4119.2,4255.5,4166.2,4395.6,4190.8,3912.1,4060.8
"COC(=O)c1ccccc1-c1c2ccc(=N)cc-2oc2cc(N)ccc12.Cl [Dye 14, Rhodamine 123]",1.1,1.1,1.1,2877.7,2874.7,2858.2,2900.3,2731.2,2596.6,2628.3,2616.4,2545.0,2491.2
